From paper PMC6790002, “Synthesis and Biological Evaluation of Structurally Varied 5′-/6′-Isonucleosides and Theobromine-Containing N-Isonucleosidyl Derivatives” (Pharmaceuticals, 2019)
“And” between values parts separate entries of the source, which are not always exact repeats. Identical values can stand only once. Counter-ions that a name gives are not always drawn. Like-named read-outs stand apart in the source and are kept apart here.

Experiments:
[1] = target: T1, butyrylcholinesterase (BChE, from equine serum) (Equus caballus, UniProt P81908); assay: Butyrylcholinesterase inhibition, Ellman's method; format: biochemical; conditions: for inhibition at 50 µM / % Inhibition of BChE: at 50 µM compound
T1 construct: Butyrylcholinesterase (from equine serum) was bought from Sigma; purchased Sigma; host or cells: equine serum

[2] = target: T2, acetylcholinesterase (AChE, from Electrophorus electricus) (Electrophorus electricus, UniProt O42275); assay: Acetylcholinesterase inhibition, Ellman's method; format: biochemical; conditions: for inhibition at 50 µM / % Inhibition of AChE: at 50 µM compound
T2 construct: purchased Fluka

[3] = tested on: acetylcholinesterase (AChE); conditions: Figure 1, cited from earlier work

T1 sequence (P81908 whole entry): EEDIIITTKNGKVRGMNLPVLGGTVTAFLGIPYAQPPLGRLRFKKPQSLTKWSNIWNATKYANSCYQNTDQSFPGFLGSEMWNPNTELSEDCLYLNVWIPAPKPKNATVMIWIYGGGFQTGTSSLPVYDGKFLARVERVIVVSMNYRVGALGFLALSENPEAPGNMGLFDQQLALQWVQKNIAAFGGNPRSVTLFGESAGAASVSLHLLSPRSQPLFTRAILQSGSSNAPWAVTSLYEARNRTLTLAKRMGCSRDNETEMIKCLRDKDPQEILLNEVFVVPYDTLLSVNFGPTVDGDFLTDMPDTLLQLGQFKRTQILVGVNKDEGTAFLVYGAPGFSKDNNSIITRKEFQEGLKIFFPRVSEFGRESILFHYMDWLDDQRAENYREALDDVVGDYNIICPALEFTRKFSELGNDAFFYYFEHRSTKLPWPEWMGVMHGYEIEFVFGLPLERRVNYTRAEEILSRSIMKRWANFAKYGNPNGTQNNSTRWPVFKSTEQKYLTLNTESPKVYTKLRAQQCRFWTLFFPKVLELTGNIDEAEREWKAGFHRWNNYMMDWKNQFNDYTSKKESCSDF
T2 sequence (O42275 24-633): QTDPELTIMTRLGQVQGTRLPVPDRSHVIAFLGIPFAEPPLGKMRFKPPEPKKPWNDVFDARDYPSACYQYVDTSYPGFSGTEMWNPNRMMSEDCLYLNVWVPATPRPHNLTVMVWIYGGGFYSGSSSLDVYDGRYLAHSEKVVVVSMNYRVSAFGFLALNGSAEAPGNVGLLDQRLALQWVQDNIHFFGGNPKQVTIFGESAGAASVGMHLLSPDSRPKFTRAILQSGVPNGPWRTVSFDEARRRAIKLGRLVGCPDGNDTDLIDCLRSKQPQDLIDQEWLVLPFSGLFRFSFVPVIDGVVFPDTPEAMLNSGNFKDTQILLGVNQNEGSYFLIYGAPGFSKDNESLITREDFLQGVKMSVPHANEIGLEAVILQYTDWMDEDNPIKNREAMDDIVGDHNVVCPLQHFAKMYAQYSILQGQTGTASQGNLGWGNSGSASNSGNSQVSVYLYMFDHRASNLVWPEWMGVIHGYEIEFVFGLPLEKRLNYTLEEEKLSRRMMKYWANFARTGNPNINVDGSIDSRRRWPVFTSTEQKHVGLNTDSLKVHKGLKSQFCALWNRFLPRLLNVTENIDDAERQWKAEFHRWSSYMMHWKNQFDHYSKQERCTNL

Compound	inhibition at 50 µM [1] [%]	inhibition at 50 µM [2] [%]	other results
CCCCCCCCCCCCO[C@@H]1[C@H]2OC(C)(C)O[C@H]2O[C@@H]1Cn1ccc(=O)n(C[C@H]2O[C@@H]3OC(C)(C)O[C@@H]3[C@H]2OCCCCCCCCCCCC)c1=O [Compound 8, 1,3-bis-(5-deoxy-3-O-dodecyl-1,2-O-isopropylidene-α-D-xylofuranos-5-yl)uracil]	32.8	26.1	–
CCCCCCCCCCCCO[C@@H]1[C@H]2OC(C)(C)O[C@H]2O[C@@H]1Cn1cnc2c(N)ncnc21 [Compound 4, 9-(5-Deoxy-3-O-dodecyl-1,2-O-isopropylidene-α-D-xylofuranos-5-yl)adenine]	11.9	16.3	–
CO[C@H]1O[C@H](Cn2c(=O)c3c(ncn3C)n(C)c2=O)[C@@H](OC(C)=O)[C@H](OC(C)=O)[C@H]1OC(C)=O [A]	–	–	inhibition of AChE (in words) ([3]; theobromine 6′-isonucleoside): good inhibitory effect
CCCCCCCCCCCCO[C@H]1[C@@H](Cn2c(=O)c3c(ncn3C)n(C)c2=O)OC(O)[C@@H]1O (stereo partly drawn) [Compound 10, 1-(5-Deoxy-3-O-dodecyl-α,β-D-xylofuranos-5-yl)-3,7-dimethyl-3,7-dihydro-1H-purine-2,6-dione]	22.9	2.6	–
CCCCCCCCCCCCO[C@@H]1[C@H]2OC(C)(C)O[C@H]2O[C@@H]1Cn1cnc2c(Cl)nc(NC(C)=O)nc21 [Compound 5, 2-Acetamido-6-chloro-9-(5-deoxy-3-O-dodecyl-1,2-O-isopropylidene-α-D-xylofuranos-5-yl)purine]	32.5	25.3	–
CCCCCCCCCCCCO[C@@H]1[C@H]2OC(C)(C)O[C@H]2O[C@@H]1Cn1c(=O)cc[nH]c1=O [Compound 7, 3-(5-deoxy-3-O-dodecyl-1,2-O-isopropylidene-α-D-xylofuranos-5-yl)uracil]	7.5	17.8	–
COc1ccc2c3c1O[C@H]1C[C@@H](O)C=C[C@@]31CCN(C)C2 [Galantamine hydrobromide, galantamine hydrobromide, reference compound]	86.3	–	type of inhibition, BChE [1]: competitive
CCCCCCCCCCCCO[C@@H]1[C@H]2OC(C)(C)O[C@H]2O[C@@H]1Cn1c(=O)c2c(ncn2C)n(C)c1=O [Compound 3, 1-(5-Deoxy-3-O-dodecyl-1,2-O-isopropylidene-α-D-xylofuranos-5-yl)-3,7-dimethyl-3,7-dihydro-1H-purine-2,6-dione]	11.7	13.8	–
1-(5-Deoxy-3-O-dodecyl-α-D-xylofuranos-5-yl)-3,7-dimethyl-3,7-dihydro-1H-purine-2,6-dione [Compound 18]	–	–	% Inhibition of BChE [1]: 19.6%; % Inhibition of AChE [2]: 14.5%
CC(=O)O[C@H]1C(NS(C)(=O)=O)O[C@H](Cn2c(=O)c3c(ncn3C)n(C)c2=O)[C@@H]1OCc1ccccc1 (some centres unmarked) [B]	–	–	inhibition of AChE (in words) ([3]; N-isonucleosidyl sulfonamide): micromolar and selective inhibition of AChE
CCCCCCCCCCCCO[C@H]1[C@@H](Cn2c(=O)c3c(ncn3C)n(C)c2=O)OC(NS(C)(=O)=O)[C@@H]1OC(C)=O (stereo partly drawn) [Compound 12, N-[2-O-Acetyl-1,5-dideoxy-5-(3,7-dimethyl-3,7-dihydro-2,6-dioxo-1H-purin-1-yl)-3-O-dodecyl-α,β-D-xylofuranos-1-yl]methanesulfonamide]	4.6	1	inhibitory effect on BChE (in words) [1]: devoid of any inhibitory effects; inhibitory effect on AChE (in words) [2]: devoid of any inhibitory effects
CCCCCCCCCCCCO[C@@H]1[C@H]2OC(C)(C)O[C@H]2O[C@@H]1Cn1ccc(=O)[nH]c1=O [Compound 6, 1-(5-Deoxy-3-O-dodecyl-1,2-O-isopropylidene-α-D-xylofuranos-5-yl)uracil]	28.5	22.5	–
N-[2,4-Di-O-acetyl-1,6-dideoxy-6-(3,7-dimethyl-3,7-dihydro-2,6-dioxo-1H-purin-1-yl)-3-O-dodecyl-α,β-D-glucopyranos-1-yl]methanesulfonamide [Compound 22]	–	–	% Inhibition of BChE ([1]; 50 µM): 53% and 52.6%; % Inhibition of AChE [2]: 28.3%
CCCCCCCCCCCCO[C@@H]1[C@@H](OC(C)=O)[C@@H](N=[N+]=[N-])O[C@@H]1Cn1c(=O)c2c(ncn2C)n(C)c1=O [Compound 13-α, 1-(2-O-Acetyl-1-azido-1,5-dideoxy-3-O-dodecyl-α-D-xylofuranos-5-yl)-3,7-dimethyl-3,7-dihydro-1H-purine-2,6-dione]	35	18.9	inhibitory effect on BChE (in words) [1]: devoid of any inhibitory effects; inhibitory effect on AChE (in words) [2]: devoid of any inhibitory effects
CCCCCCCCCCCCO[C@@H]1[C@H]2OC(C)(C)O[C@H]2O[C@@H]1COc1ccnc(OC[C@H]2O[C@@H]3OC(C)(C)O[C@@H]3[C@H]2OCCCCCCCCCCCC)n1 [Compound 9, 2,4-bis-O-(5-deoxy-3-O-dodecyl-1,2-O-isopropylidene-α-D-xylofuranos-5-yl)uracil]	29.8	40.3	Ki′ (uncompetitive inhibition), AChE [2]: 103.0 µM and 103.0 ± 4.3 µM; type of inhibition, AChE [2]: mixed-type; Ki ([2]; read-out: Ki (competitive inhibition), AChE): 17.5 ± 0.7 µM
